test system: Rho kinase (ROK, ROCK); assay: Rho kinase inhibitory activity (ROK activity); type: biochemical; parameters: key: +: active; ++: more active; +++: very active; conditions: assays conducted at 1-100 μM

Structure (SMILES)	ROK activity
O=C(Cc1ccc(Cl)cc1)Nc1cncc(-c2ccncc2)c1 [Example 1, N-[3,4′]Bipyridinyl-5-yl-2-(4-chloro-phenyl)-acetamide]	+
Fc1cc(CNc2cccc(-c3ccncc3)c2)ccc1Cl [Example 2, (4-Chloro-3-fluoro-benzyl)-(3-pyridin-4-yl-phenyl)-amine]	+++
Fc1cc(CNc2cncc(-c3ccncc3F)c2)ccc1Cl [Example 3, (4-Chloro-3-fluoro-benzyl)-(3′-fluoro-[3,4′]bipyridinyl-5-yl)-amine]	+++
Fc1cc(CNc2cncc(-c3ccnc(Cl)c3)c2)ccc1Cl [Example 4, (2′-Chloro-[3,4′]bipyridinyl-5-yl)-(4-chloro-3-fluoro-benzyl)-amine]	+
Fc1cc(CNc2cncc(-c3ccncc3Cl)c2)ccc1Cl [Example 5, (3′-Chloro-[3,4′]bipyridinyl-5-yl)-(4-chloro-3-fluoro-benzyl)-amine]	+++
Fc1cc(CNc2cncc(-c3ccnc(Cl)c3Cl)c2)ccc1Cl [Example 6, (4-Chloro-3-fluoro-benzyl)-(2′,3′-dichloro-[3,4′]bipyridinyl-5-yl)-amine]	+
Fc1cc(CNc2cncc(-c3cccc4ncccc34)c2)ccc1Cl [Example 7, (4-Chloro-3-fluoro-benzyl)-(5-quinolin-5-yl-pyridin-3-yl)-amine]	++
Fc1cc(CNc2cncc(-c3ccnc(Cl)c3F)c2)ccc1Cl [Example 8, (4-Chloro-3-fluoro-benzyl)-(2′-chloro-3′-fluoro-[3,4′]bipyridinyl-5-yl)-amine]	+
c1ccc(CNc2cncc(-c3ccncc3)c2)cc1 [Example 9, Benzyl-[3,4′]bipyridinyl-5-yl-amine]	+++
Clc1cccc(Cl)c1CNc1cncc(-c2ccncc2)c1 [Example 10, [3,4′]Bipyridinyl-5-yl-(2,6-dichloro-benzyl)-amine]	+
FC(F)(F)c1cc(Cl)ccc1CNc1cncc(-c2ccncc2)c1 [Example 11, [3,4′]Bipyridinyl-5-yl-(4-chloro-2-trifluoromethyl-benzyl)-amine]	++
CC(O)CNc1cc(-c2cncc(NCc3ccc(Cl)cc3)c2)ccn1 (centres unmarked) [Example 12, 1-[5-(4-Chloro-benzylamino)-[3,4′]bipyridinyl-2′-ylamino]-propan-2-ol]	+
CC(C)(C)OC(=O)N1CCCC(CNc2cncc(-c3ccncc3)c2)C1 (centres unmarked) [Example 13, 3-([3,4′]Bipyridinyl-5-ylaminomethyl)-piperidine-1-carboxylic acid tert-butyl ester]	+

Other lines, results leading:

ROK activity	Structure (SMILES)
+	CC(C)(C)OC(=O)N1CCC(CNc2cncc(-c3ccncc3)c2)CC1 [Example 14, 4-([3,4′]Bipyridinyl-5-ylaminomethyl)-piperidine-1-carboxylic acid tert-butyl ester]
+	CC(C)(C)OC(=O)N1CCC(Nc2cncc(-c3ccncc3)c2)CC1 [Example 15, 4-([3,4′]Bipyridinyl-5-ylamino)-piperidine-1-carboxylic acid tert-butyl ester]
++	c1cc(-c2cncc(NCC3CCCNC3)c2)ccn1 (centres unmarked) [Example 16, [3,4′]Bipyridinyl-5-yl-piperidin-3-ylmethyl-amine]
++	FC(F)(F)c1cccc(CNc2cncc(-c3ccncc3)c2)c1 [Example 17, [3,4′]Bipyridinyl-5-yl-(3-trifluoromethyl-benzyl)-amine]
+++	FC(F)(F)c1ccc(CNc2cncc(-c3ccncc3)c2)cc1 [Example 18, [3,4′]Bipyridinyl-5-yl-(4-trifluoromethyl-benzyl)-amine]
+++	Fc1cc(Cl)ccc1CNc1cncc(-c2ccncc2)c1 [Example 19, [3,4′]Bipyridinyl-5-yl-(4-chloro-2-fluoro-benzyl)-amine]
+	O=C(Nc1cncc(-c2ccncc2)c1)c1ccc(Cl)cc1 [Example 20, N-[3,4′]Bipyridinyl-5-yl-4-chloro-benzamide]
+	O=S(=O)(Nc1cncc(-c2ccncc2)c1)c1ccc(Cl)cc1 [Example 21, N-[3,4′]Bipyridinyl-5-yl-4-chloro-benzenesulfonamide]
+++	Fc1ccc(CNc2cncc(-c3ccncc3)c2)c(F)c1 [Example 22, [3,4′]Bipyridinyl-5-yl-(2,4-difluoro-benzyl)-amine]

same assay, conditions: assays conducted at 1-100 μM, listed as N-[3,4′]Bipyridinyl-5-yl-2-(4-chloro-phenyl)-acetamide

ROK activity	Structure (SMILES)
++	O=C(Cc1ccc(Cl)cc1)Nc1cncc(-c2ccncc2)c1 [Example 1, N-[3,4′]Bipyridinyl-5-yl-2-(4-chloro-phenyl)-acetamide]

— patent US20080194584A1, “Nitrogen Heteroaromatic Compounds Which Bind To The Active Site Of Protein Kinase Enzymes” (priority 2004, published 2008)
